Source: US12018045B2, “17-beta-hydroxywithanolides and use thereof in treating cancer” (The United States of America, as represented by the …, priority 2018, dated 2024)

Tests used:
[1] = tested on: LNCaP prostate cancer cells; assay: Growth inhibition of LNCaP prostate cancer cells; assay type: cell-based; details: Homo sapiens
Method: (§1) LNCaP and 22Rv1 prostate cancer cells and human fibroblasts HFF cells were treated with compounds 1, 2, 3, and 4.

[2] = tested on: 22Rv1 prostate cancer cells; assay: Growth inhibition of 22Rv1 prostate cancer cells; assay type: cell-based; details: Homo sapiens
Method: as §1

[3] = tested on: human fibroblasts HFF cells; assay: Growth inhibition of human fibroblasts HFF cells; assay type: cell-based
Method: as §1

[4] = tested on: ACHN, SN12C, Caki-2, TK-10, and UO-31 renal carcinoma cells; assay: Sensitization of renal carcinoma cell lines to TRAIL apoptosis, comparison with IAP and Bcl-2 antagonists; assay type: cell-based, human; details: 5 renal carcinomas; compared to Birinapant, GDC-0152, LCL-161, ABT-199 and ABT-737
Method: ACHN, S[…], Caki-2, TK-10, and UO-31 cells were treated with compound 1, the IAP antagonists Birinapant, GDC-0152, or LCL-161 and the Bcl-2 antagonists ABT-199 and ABT-737 in the presence and absence of TRAIL.

[5] = tested on: 888, 1383, and Baldwin renal melanoma cells; assay: Sensitization of 888, 1383 and Baldwin melanoma cells to TRAIL apoptosis; assay type: cell-based, human; details: 888, 1383, Baldwin melanoma cells; compared to Birinapant or ABT-737
Method: 888, 1383, and Baldwin renal melanoma cells were treated with compound 1 of compound 3, the Birinapant, or ABT-737 in the presence and absence of TRAIL.

SK-MEL-28 melanoma cells = assay: Killing of SK-MEL-28 melanoma cells by activated human T cells (crystal violet); assay type: cell-based; details: PCC 500 nM 24 h before T cells
Method: 6 well costar plates were precoated with anti-CD3 (1 ug/ml) in PBS overnight at 4° C. Wells were washed with PBS then blocked with RPMI+10% FBS for 30 min before adding anti-CD28 (0.2 ug/ml) and purified T cells.
T cells were isolated from human PBMCs using Pan T cell isolation kit (Miltenyi Biotech) as per manufacturers protocol, added to the costar plates and incubated at 37° C. 24 hours later activated T cells were used as effectors.
SK-MEL-28 cells (200,000) were added to costar 6 plates. After 24 h PCC (500 nM) or control DMSO was added, followed 24 h later by addition of activated T cells at different target to effector ratios. After a further 24 hours plates were washed and adherent melanoma cells were fixed with methanol and stained with crystal violet.
SK-MEL-28 melanoma cells were treated with media, compound 1, or compound 1+α-TNFα and then incubated with the activated human T cells.

cFLIP [6] = assay: cFLIP levels in LNCaP prostate cancer cells (Western blot); assay type: cell-based; details: 125 nM, 250 nM, or 500 nM
Method: LNCaP prostate cancer cells were treated with 125 nM, 250 nM, or 500 nM of compounds 1 or 3.

cFLIP [7] = assay: cFLIP levels in 22Rv1 prostate cancer cells (Western blot); assay type: cell-based; details: 22Rv1 cells; 125 nM, 250 nM, or 500 nM
Method: 22Rv1 prostate cancer cells were treated with 125 nM, 250 nM, or 500 nM of compounds 1 or 3.

cFLIP [8] = assay: cFLIP reduction in ACHN cells (Western blotting); assay type: cell-based, human; details: ACHN renal carcinoma cells; 125, 250, 500 nM; 24 h; compared with compound 1
Method: This example the effect of compounds 1 and 3 on the reduction of cFLIP in ACHN human carcinoma cells as a function of concentration after 24 exposure to the compounds.
ACHN human renal carcinoma cells were treated with 125 nM, 250 nM, and 500 nM of compounds 1 and 3. After 24 h exposure to the compounds, Western blotting was performed to separate FLIPL and FLIPS, and the results shown in FIG. 3.

cFLIP [9] = assay: cFLIP reduction in M14 melanoma cells (Western blotting); assay type: cell-based, human; details: 0-500 nM, 24 h, compared with compound 1
Method: M14 human melanoma cells were treated with 0, 31.25, 62.5, 125, 250, or 500 nM of compounds 1 and 3. After 24 h, Western blotting was performed to separate cFLIPL, cFLIPS, and GAPDH.

B16F10 melanoma = B16F10 melanoma xenograft model in C57B/6 mice; assay type: in vivo; details: intra-tumor twice a week for 3 weeks; versus vehicle and compound 1
Method: C57B/6 mice were injected with 5×10^5 B16F10 melanoma cells s.c. Tumors were allowed to grow 8-10 days and then vehicle, compound 1, or compound 3 were injected intra-tumor twice a week for 3 weeks. Tumor growth was monitored until endpoint.

## CC(=O)OC[C@]12CC[C@H]3[C@@H](C[C@H]4O[C@]45CC=CC(=O)[C@]35C)[C@]1(O)CC[C@@]2(O)[C@@](C)(O)[C@H]1CC(C)=C(C)C(=O)O1 [Compound 1, Physachenolide C]
[1]
  IC50: 37 ± 2 nM
[2]
  IC50: 48 ± 2 nM
[3]
  IC50: > 2000 nM
[4]
  sensitization of TRAIL apoptosis: superior results
[5]
  sensitization of TRAIL apoptosis: superior results
SK-MEL-28 melanoma cells
  killing of human melanoma cells by activated T cells: enhanced the killing
cFLIP [6]
  cFLIP levels: reduction of cFLIP levels
cFLIP [7]
  cFLIP levels: reduction of cFLIP levels

## COc1ccc(C(=O)OC[C@]23CC[C@H]4[C@@H](C[C@H]5O[C@]56CC=CC(=O)[C@]46C)[C@]2(O)CC[C@@]3(O)[C@@](C)(O)[C@H]2CC(C)=C(C)C(=O)O2)cc1 [Compound 2]
[1]
  IC50: 18 ± 2 nM
[2]
  IC50: 16 ± 4 nM
[3]
  IC50: 938 ± 10 nM

## CC1=C(C)C(=O)O[C@@H]([C@](C)(O)[C@]2(O)CC[C@@]3(O)[C@@H]4C[C@H]5O[C@]56CC=CC(=O)[C@]6(C)[C@H]4CC[C@]23COC(=O)c2ccc(C)o2)C1 [Compound 3, withaperuvin E]
[1]
  IC50: 14 ± 1 nM
[2]
  IC50: 10 ± 2 nM
[3]
  IC50: 892 ± 119 nM
cFLIP [8]
  cFLIP reduction: elevated activity over compound 1
cFLIP [9]
  cFLIP reduction: elevated activity over compound 1
[5]
  sensitization of TRAIL apoptosis: superior results
B16F10 melanoma
  tumor volume: lowest
cFLIP [6]
  cFLIP levels: reduction of cFLIP levels
cFLIP [7]
  cFLIP levels: reduction of cFLIP levels

## CC1=C(C)C(=O)O[C@@H]([C@](C)(O)[C@]2(O)CC[C@@]3(O)[C@@H]4C[C@H]5O[C@]56CC=CC(=O)[C@]6(C)[C@H]4CC[C@]23COC(=O)c2ccc(C)nc2)C1 [Compound 4]
[1]
  IC50: 17 ± 8 nM
[2]
  IC50: 17 ± 1 nM
[3]
  IC50: 945 ± 92 nM
